Measured values published in patent US20250213735A1, “NEUROPEPTIDE Y1 RECEPTOR (NPY1R) TARGETED THERAPEUTICS AND USES THEREOF” (Radionetics Oncology, Inc., priority 2023, published 2025).
Numbered stars: 1 amine (or outer) side, 2 acyl side, 3 side chain; on linkers, the order of the positions; unused ones are H or OH. Square brackets hold non-standard residues; d marks the D form. Peptide text beside a SMILES is read from it. * marks the point of attachment. dArg(Nω-CONH(CH2)2NHCOEt) = CCC(=O)NCCNC(=O)/N=C(/N)NCCC[C@@H](N)C(=O)O; DOTA = O=C(O)CN1CCN(CC(=O)O)CCN(CC(=O)*)CCN(CC(=O)O)CC1; X1 = O=C([C@H](c1ccc(OCCCN[*:1])cc1)N1Cc2ccccc2C1)[*:2]; NH(2,6-F2-4-OH-benzyl) = Oc1cc(F)c(CN*)c(F)c1; Sar = CNCC(=O)O
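Note: bound radioligand separated by filtration over GF/C filter plates and counted, Ki obtained by non-linear regression.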

These compounds were tested against hNPY1R (Homo sapiens (Human), UniProt P25929) (assay: NPY1R binding assay (SK-N-MC membrane, [125I]-Peptide YY competition)). Settings: crude SK-N-MC membranes endogenously expressing NPY1R; [125I]-Peptide YY (human) 0.05 nM; 120 min at room temperature; read-out: hNPY1R binding Ki.
Chain of hNPY1R (P25929 whole entry): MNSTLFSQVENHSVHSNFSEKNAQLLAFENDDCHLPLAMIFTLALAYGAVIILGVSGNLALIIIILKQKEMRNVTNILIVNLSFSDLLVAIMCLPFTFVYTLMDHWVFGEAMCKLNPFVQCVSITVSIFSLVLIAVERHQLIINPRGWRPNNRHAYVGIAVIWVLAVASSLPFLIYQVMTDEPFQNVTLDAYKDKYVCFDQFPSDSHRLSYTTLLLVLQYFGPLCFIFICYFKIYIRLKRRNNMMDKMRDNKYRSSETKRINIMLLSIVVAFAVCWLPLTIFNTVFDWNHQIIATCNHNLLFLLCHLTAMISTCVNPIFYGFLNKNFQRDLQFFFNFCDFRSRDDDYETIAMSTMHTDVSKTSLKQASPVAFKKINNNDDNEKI
For CCC(=O)NCCNC(=O)/N=C(/N)NCCC[C@@H](NC(=O)[C@H](c1ccc(OCCCNC(=O)CCC(=O)NCCNC(=O)CN2CCN(CC(=O)O)CCN(CC(=O)O)CCN(CC(=O)O)CC2)cc1)N1Cc2ccccc2C1)C(=O)NCc1c(F)cc(O)cc1F [compound 7, 2,2′,2″-(10-(2-((2-(4-((3-(4-((1S,4R,Z)-9-amino-4-((2,6-difluoro-4-hydroxybenzyl)carbamoyl)-1-(isoindolin-2-yl)-2,11,16-trioxo-3,8,10,12,15-pentaazaoctadec-9-en-1-yl)phenoxy)propyl)amino)-4-oxobutanamido)ethyl)amino)-2-oxoethyl)-1,4,7,10-tetraazacyclododecane-1,4,7-triyl)triacetic acid-2,2,2-trifluoroacetic acid (1/1)], the Ki was < 0.01 µM.
With CCC(=O)NCCNC(=O)/N=C(/N)NCCC[C@@H](NC(=O)[C@H](c1ccc(OCCCNC(=O)CN(C)C(=O)CN(C)C(=O)CN(C)C(=O)CN2CCN(CC(=O)O)CCN(CC(=O)O)CCN(CC(=O)O)CC2)cc1)N1Cc2ccccc2C1)C(=O)NCc1c(F)cc(O)cc1F [compound 46, 2,2′,2″-(10-(15-(4-((1S,4R,Z)-9-amino-4-((2,6-difluoro-4-hydroxybenzyl)carbamoyl)-1-(isoindolin-2-yl)-2,11,16-trioxo-3,8,10,12,15-pentaazaoctadec-9-en-1-yl)phenoxy)-3,6,9-trimethyl-2,5,8,11-tetraoxo-3,6,9,12-tetraazapentadecyl)-1,4,7,10-tetraazacyclododecane-1,4,7-triyl)triacetic acid] ({DOTA}-[Sar][Sar][Sar][X1][dArg(Nω-CONH(CH2)2NHCOEt)]-{NH(2,6-F2-4-OH-benzyl)}) the Ki was < 0.01 µM.
N=C(N)NCCC[C@@H](NC(=O)C(c1ccccc1)N1CCC(C2CC2)CC1)C(=O)NCc1ccc(O)cc1 (stereo partly drawn) [compound 81, (2R)-2-(2-(4-cyclopropylpiperidin-1-yl)-2-phenylacetamido)-5-guanidino-N-(4-hydroxybenzyl)pentanamide] gave a Ki of 0.1 to 1 µM.
For CCC(=O)NCCNC(=O)/N=C(/N)NCCC[C@@H](NC(=O)[C@H](c1ccc(OCCCNC(=O)NCCONC(=O)CN2CCN(CC(=O)O)CCN(CC(=O)O)CCN(CC(=O)O)CC2)cc1)N1Cc2ccccc2C1)C(=O)NCc1c(F)cc(O)cc1F [compound 45, 2,2′,2″-(10-(12-(4-((1S,4R,Z)-9-amino-4-((2,6-difluoro-4-hydroxybenzyl)carbamoyl)-1-(isoindolin-2-yl)-2,11,16-trioxo-3,8,10,12,15-pentaazaoctadec-9-en-1-yl)phenoxy)-2,8-dioxo-4-oxa-3,7,9-triazadodecyl)-1,4,7,10-tetraazacyclododecane-1,4,7-triyl)triacetic acid], the Ki was < 0.01 µM.
Compound CCC(=O)NCCNC(=O)/N=C(/N)NCCC[C@@H](NC(=O)[C@@H](c1ccc(OCCCN)cc1)N1Cc2ccccc2C1)C(=O)NCc1ccc(O)cc1 [64B] has a Ki of 0.01 to 0.1 µM.
Compound N=C(N)NCCC[C@@H](NC(=O)C(c1ccccc1)N1CCC2(CC1)CC2)C(=O)NCc1ccc(O)cc1 (stereo partly drawn) [compound 85, (2R)-5-guanidino-N-(4-hydroxybenzyl)-2-(2-phenyl-2-(6-azaspiro[2.5]octan-6-yl)acetamido)pentanamide] has a Ki of 0.01 to 0.1 µM.
With CCC(=O)NCCNC(=O)/N=C(/N)NCCC[C@@H](NC(=O)[C@H](c1cccc(OCCCNC(=O)CCCCCNC(=O)CN2CCN(CC(=O)O)CCN(CC(=O)O)CCN(CC(=O)O)CC2)c1)N1Cc2ccccc2C1)C(=O)NCc1ccc(O)cc1 [compound 12, 2,2′,2″-(10-(2-((6-((3-(3-((1S,4R,Z)-9-amino-4-((4-hydroxybenzyl)carbamoyl)-1-(isoindolin-2-yl)-2,11,16-trioxo-3,8,10,12,15-pentaazaoctadec-9-en-1-yl)phenoxy)propyl)amino)-6-oxohexyl)amino)-2-oxoethyl)-1,4,7,10-tetraazacyclododecane-1,4,7-triyl)triacetic acid] the Ki was < 0.01 µM.
N=C(N)NCCC[C@@H](NC(=O)C(c1ccccc1)N1CCC2(CCCC2)CC1)C(=O)NCc1ccc(O)cc1 (stereo partly drawn) [compound 84, (2R)-5-guanidino-N-(4-hydroxybenzyl)-2-(2-phenyl-2-(8-azaspiro[4.5]decan-8-yl)acetamido)pentanamide] showed a Ki of 0.1 to 1 µM.
With CCC(=O)NCCNC(=O)/N=C(/N)NCCC[C@@H](NC(=O)[C@H](c1cccc(NCCCNC(=O)[C@@H](CO)NC(=O)CCNC(=O)CN2CCN(CC(=O)O)CCN(CC(=O)O)CCN(CC(=O)O)CC2)c1)N1Cc2ccccc2C1)C(=O)NCc1ccc(O)cc1 [compound 30, 2,2′,2″-(10-(2-((3-(((R)-1-((3-((3-((1S,4R,Z)-9-amino-4-((4-hydroxybenzyl)carbamoyl)-1-(isoindolin-2-yl)-2,11,16-trioxo-3,8,10,12,15-pentaazaoctadec-9-en-1-yl)phenyl)amino)propyl)amino)-3-hydroxy-1-oxopropan-2-yl)amino)-3-oxopropyl)amino)-2-oxoethyl)-1,4,7,10-tetraazacyclododecane-1,4,7-triyl)triacetic acid] the Ki was < 0.01 µM.
CCC(=O)NCCNC(=O)/N=C(/N)NCCC[C@@H](NC(=O)[C@H](c1ccccc1)N1Cc2cccc(NCCCNC(=O)CCC(=O)NCCNC(=O)CN3CCN(CC(=O)O)CCN(CC(=O)O)CCN(CC(=O)O)CC3)c2C1)C(=O)NCc1c(F)cc(O)cc1F [compound 42, 2,2′,2″-(10-(2-((2-(4-((3-((2-((1S,4R,Z)-9-amino-4-((2,6-difluoro-4-hydroxybenzyl)carbamoyl)-2,11,16-trioxo-1-phenyl-3,8,10,12,15-pentaazaoctadec-9-en-1-yl)isoindolin-4-yl)amino)propyl)amino)-4-oxobutanamido)ethyl)amino)-2-oxoethyl)-1,4,7,10-tetraazacyclododecane-1,4,7-triyl)triacetic acid] was tested, and the Ki was < 0.01 µM.
With CCC(=O)NCCNC(=O)/N=C(/N)NCCC[C@@H](NC(=O)[C@H](c1cccc(NCCCNC(=O)NOCCNC(=O)CN2CCN(CC(=O)O)CCN(CC(=O)O)CCN(CC(=O)O)CC2)c1)N1Cc2ccccc2C1)C(=O)NCc1ccc(O)cc1 [compound 22, 2,2′,2″-(10-(12-((3-((1S,4R,Z)-9-amino-4-((4-hydroxybenzyl)carbamoyl)-1-(isoindolin-2-yl)-2,11,16-trioxo-3,8,10,12,15-pentaazaoctadec-9-en-1-yl)phenyl)amino)-2,8-dioxo-6-oxa-3,7,9-triazadodecyl)-1,4,7,10-tetraazacyclododecane-1,4,7-triyl)triacetic acid] the Ki was < 0.01 µM.
CCC(=O)NCCNC(=O)/N=C(/N)NCCC[C@@H](NC(=O)[C@@H](c1ccc(CCCOCCOCCNC(=O)CN2CCN(CC(=O)O)CCN(CC(=O)O)CCN(CC(=O)O)CC2)cc1)N1Cc2ccccc2C1)C(=O)NCc1c(F)cc(O)cc1F (single isomer, unassigned) [8B] was tested, and the Ki was 0.01 to 0.1 µM.
For CCC(=O)NCCNC(=O)/N=C(/N)NCCC[C@@H](NC(=O)[C@H](c1ccc(OCCCNC(=O)[C@@H](CC(N)=O)NC(=O)CCNC(=O)CN2CCN(CC(=O)O)CCN(CC(=O)O)CCN(CC(=O)O)CC2)cc1)N1Cc2ccccc2C1)C(=O)NCc1c(F)cc(O)cc1F [compound 50, 2,2′,2″-(10-(2-((3-(((R)-4-amino-1-((3-(4-((1S,4R,Z)-9-amino-4-((2,6-difluoro-4-hydroxybenzyl)carbamoyl)-1-(isoindolin-2-yl)-2,11,16-trioxo-3,8,10,12,15-pentaazaoctadec-9-en-1-yl)phenoxy)propyl)amino)-1,4-dioxobutan-2-yl)amino)-3-oxopropyl)amino)-2-oxoethyl)-1,4,7,10-tetraazacyclododecane-1,4,7-triyl)triacetic acid], the Ki was < 0.01 µM.
For CCC(=O)NCCNC(=O)/N=C(/N)NCCC[C@@H](NC(=O)[C@H](c1ccccc1)N1Cc2cccc(NC(=O)CCCNC(=O)CCCCCNC(=O)CN3CCN(CC(=O)O)CCN(CC(=O)O)CCN(CC(=O)O)CC3)c2C1)C(=O)NCc1c(F)cc(O)cc1F [compound 9, 2,2′,2″-(10-(2-((6-((4-((2-((1S,4R,Z)-9-amino-4-((2,6-difluoro-4-hydroxybenzyl)carbamoyl)-2,11,16-trioxo-1-phenyl-3,8,10,12,15-pentaazaoctadec-9-en-1-yl)isoindolin-4-yl)amino)-4-oxobutyl)amino)-6-oxohexyl)amino)-2-oxoethyl)-1,4,7,10-tetraazacyclododecane-1,4,7-triyl)triacetic acid], the Ki was < 0.01 µM.
For N=C(N)NCCC[C@@H](NC(=O)C(c1ccccc1)N1CCC(C2CCCCC2)CC1)C(=O)NCc1ccc(O)cc1 (stereo partly drawn) [compound 83, (2R)-2-(2-(4-cyclohexylpiperidin-1-yl)-2-phenylacetamido)-5-guanidino-N-(4-hydroxybenzyl)pentanamide], the Ki was > 1 µM.
For CCC(=O)NCCNC(=O)/N=C(/N)NCCC[C@@H](NC(=O)[C@@H](c1ccccc1)N1Cc2ccccc2C1)C(=O)NCc1c(F)cc(O)cc1F [61B, (R)—N-(2,6-difluoro-4-hydroxybenzyl)-2-((R)-2-(isoindolin-2-yl)-2-phenylacetamido)-5-((Z)-2-((2-propionamidoethyl)carbamoyl)guanidino)pentanamide], the Ki was < 0.01 µM.
